According to article PMC8546149, “Antibiotic-chemoattractants enhance neutrophil clearance of Staphylococcus aureus” (Nature Communications, 2021):
In brackets after ≈: the same amount, converted by molar mass. Several values for one entry are separate records, joined by “and”; a condition that tells them apart may be missing. Identical values can stand only once. Non-standard residues stand in square brackets, D forms with d. No end group written: not given here. *: point of attachment. Pra = C#CC[C@H](N)C(=O)O; For = O=C*

Columns and labels:
S. aureus = experiment: Antimicrobial microbroth dilution assay (growth, MIC); format: cell-based; details: Staphylococcus aureus, 20 h, 90% growth inhibition at 20 h, ±SD, n=4
Description: All bacterial isolates used in this study are listed in Supplementary Table 1. The American Type Culture Collection strain (ATCC 29213) and S. aureus strains were cultured onto brain heart infusion (BHI) agar (BD) or into broth (BD) and grown at 37 °C with shaking. S. aureus was grown in cation adjusted Muller Hinton Broth II (CAMHB, Becton Dickson) for testing. All bacterial strains were stored in glycerol broth at −80 °C.
Antimicrobial activity of the antibiotic-chemoattractants was determined as per the Clinical and Laboratory Standards Institute guidelines for microbroth dilution assays. Compounds stocks were prepared as two-fold serial dilution at 10x stock concentration required (final concentration of DMSO 0.5%). Growth of the S. aureus (5 × 10^5 CFU/mL in CAMHB) was monitored in 96-well flat bottom polypropylene microtiter plates (Greiner) covered with BreatheEasy membranes (Diversified Biotech) and absorbance of each well was measured at 595 nm every 4 h for 24 h (Clariostar plate reader, software v5.20R5, BMG). The percentage growth was calculated relative to the no compound control and the average of three biological replicates plotted using GraphPad Prism 9 software. The minimum inhibitory concentration was determined by the lowest drug concentration that inhibited bacterial growth to 90% compared to the 0 μM control.

[1] = Mouse pneumonia model, lung histology (alveoli space, nuclei); format: in vivo; parameters: Area of lung: unit not given here; details: each line is an individual value, listed as Van
Description: For pathology assessment, excised lungs from one mouse for each of the treatment group was fixed in 10% buffered formalin before undergoing routine histological processing (Monash University Histology Platform). Lungs were embedded in paraffin, cut into 5 µm thick sections and stained with hematoxylin and eosin. Tissue pathology was assessed by a veterinary pathologist (Dr Mark Williamson, Gribbles Veterinary Pathology, Clayton, Australia).
The loss of alveoli structure was quantified in the H&E sections by determining the area of white space in six FOV (1.8 × 1.2 mm) in the outer lobes of the lung (threshold of 0–240). In addition, the number of nuclei in these FOV were also determined. This was performed by isolating nuclei in the image (threshold of 0–130) and then using the analyze particle function (particles 80–4000, circularity 0.05–1) in FIJI[36] to count the number of nuclei detected. Data were plotted using GraphPad Prism 8 software.

human neutrophils = experiment: Transwell chemotaxis assay; format: cell-based; details: any of the concentrations tested (1-1000 nM)
Description: For neutrophils used in transwell assays whole blood was collected in the presence of EDTA, under approval from Monash University Human Research Ethics Committee (project #9572) with written informed consent from healthy human donors; donors were de-identified.
The chemotaxis assay was performed in a 96-transwell plate with 3 µm pores (Corning). The plate was prepared by adding 200 μL of peptide in chemotaxis buffer (4 mM L-glutamine, 0.5% Human Serum Albumin, Sigma, 49% Roswell Park Memorial Institute (RPMI) 1640, 49% Hank’s buffered salt solution, ThermoFisher) into the bottom receiving wells at a final peptide concentration of 1, 10, 100, and 1000 nM (0.02% DMSO). The negative control of 0.02% DMSO was used. The top of the transwell plate was loaded with 200,000 neutrophils in 75 μL chemotaxis buffer. The plate was incubated in the dark at 37 °C with 5% CO2 for 1.5 h. […] Elastase activity was used as an indicator of neutrophil numbers and was measured by adding the chromogenic elastase substrate N-methoxysuccinyl-Ala-Ala-Pro-Val-p-nitroanilide (Sigma) at a final concentration of 1 mM[35]. After 30 min at room temperature, the absorbance at 405 nm was determined using a microplate reader (Clariostar plate reader, BMG). […]

S. aureus (SH1000-GFP) = experiment: Infection-on-a-chip S. aureus growth (GFP area) with neutrophils; format: cell-based, Staphylococcus aureus
Description: Use of this microfluidic device for monitoring migration of neutrophils and control of the S. aureus growth in cell culture medium has been outlined in detail previously. Briefly, microfluidic devices were primed with S. aureus (SH1000-GFP, 1 × 10^6/mL) in culture media (Iscove’s Modified Dulbecco’s Medium + 10% Fetal Bovine Serum) by loading the outer chamber and applying vacuum to draw bacteria into the inner chambers. The outer chamber was then washed by pushing 200 µL of media through the device using a pipette, and loaded with neutrophils (5.5 × 10^6/mL, stained with Hoechst 33342 dye, 10 min at 32 μM). Additionally, neutrophil phagocytosis was monitored by using pHrodo Red S. aureus BioParticles® (Life Technologies) in replace of live S. aureus cells. […] The concentration of cells were determined by hemocytometer.
Kinetics of neutrophil migration, S. aureus growth and phagocytosis was determined using imaging with an automated Nikon Eclipse TiE inverted wide-field microscope with stage control and perfect focus system run through the Nikon NIS element v4. […] The percentage of neutrophils recruited into the chamber was determined relative to the total number of neutrophils in each FOV divided by the number of chambers visible. […] The pHrodo or S. aureus GFP fluorescence within the microchamber was calculated by thresholding the image and measuring the area in FIJI[36]. […]

[2] = biological target: T1, formyl peptide receptor 1 (FPR1) (human, UniProt P21462 1-350); experiment: cell-based or functional assay
T1 sequence (looked up): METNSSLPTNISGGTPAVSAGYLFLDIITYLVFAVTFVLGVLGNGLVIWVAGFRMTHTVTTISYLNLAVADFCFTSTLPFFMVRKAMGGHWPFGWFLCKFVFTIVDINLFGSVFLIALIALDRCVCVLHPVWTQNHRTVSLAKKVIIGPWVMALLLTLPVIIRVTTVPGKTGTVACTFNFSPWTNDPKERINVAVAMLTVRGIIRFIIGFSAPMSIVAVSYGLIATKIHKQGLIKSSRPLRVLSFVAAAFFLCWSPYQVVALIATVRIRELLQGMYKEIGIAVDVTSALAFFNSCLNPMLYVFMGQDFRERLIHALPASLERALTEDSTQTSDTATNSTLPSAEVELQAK

Molecule: CN[C@H](CC(C)C)C(=O)N[C@H]1C(=O)N[C@@H](CC(N)=O)C(=O)N[C@H]2C(=O)N[C@H]3C(=O)N[C@H](C(=O)N[C@H](C(=O)O)c4cc(O)cc(O)c4-c4cc3ccc4O)[C@H](O)c3ccc(c(Cl)c3)Oc3cc2cc(c3O[C@@H]2O[C@H](CO)[C@@H](O)[C@H](O)[C@H]2O[C@H]2C[C@](C)(N)[C@H](O)[C@H](C)O2)Oc2ccc(cc2Cl)[C@H]1O [Vancomycin, vancomycin]
- MIC (S. aureus; A8819 (daptomycin susceptible, ST105)): 0.8 ± 0.1 µM (≈ 1.16 µg/mL)
- MIC (S. aureus; ATCC 29213 / MSSA, ATCC 29213 (MSSA)): 1 ± 0.25 µM (≈ 1.45 µg/mL)
- MIC (S. aureus; MRSA, A5937 (MRSA, ST5)): 0.6 ± 0.01 µM (≈ 0.87 µg/mL)
- MIC (S. aureus; MRSA, A5948 (MRSA, ST8)): 0.3 ± 0.03 µM (≈ 0.435 µg/mL)
- MIC (S. aureus; MRSA, A6300 (MRSA, ST5)): 1 ± 0.2 µM (≈ 1.45 µg/mL)
- MIC (S. aureus; MRSA, A8090 (MRSA, ST5)): 0.6 ± 0.01 µM (≈ 0.87 µg/mL)
- MIC (S. aureus; MRSA, A9719 (MRSA, ST5)): 1 ± 0.3 µM (≈ 1.45 µg/mL)
- MIC (S. aureus; MRSA, A9754 (MRSA, ST8)): 1.1 ± 0.06 µM (≈ 1.59 µg/mL)
- MIC (S. aureus; MSSA, A9635 (MSSA, ST1892)): 0.6 ± 0.01 µM (≈ 0.87 µg/mL)
- Area of lung [1]: 61.3 and 69.7 and 55.1 and 61.6 and 71.0 and 68.4 and 57.8
- Nuclei [1]: 6013 and 1856 and 2087 and 3027 and 4794 and 2455
- neutrophil recruitment (in words) (human neutrophils): no neutrophil recruitment

Molecule: Van-C(H-MLFG-Tz) [C12]
- neutrophil recruitment (in words) (human neutrophils): no neutrophil recruitment
- growth inhibition of S. aureus by neutrophils in the microfluidic assay (S. aureus (SH1000-GFP)): no observable growth inhibition

B1: fMLFG = van (fMLFG conjugated to the C-terminus of vancomycin, no PEG linker) (peptide)
peptide: For-MLFG[Pra]
modifications: also: C-terminal propargylglycine linked by click (triazole) to azide-modified vancomycin carboxyl group
- ERK1/2 phosphorylation at 5 min in CHO cells overexpressing human FPR1, potency of the conjugate against the free peptide (lower potency) [2]: 10 fold
- calcium mobilization in CHO cells overexpressing human FPR1, potency of the conjugate against the free peptide (lower potency) [2]: > 90 fold
